What was measured:
[1] = tested on: primary cortical neurons; test: Synaptogenesis assay of primary cortical neurons (image-based HCS) against paclitaxel-induced neurotoxicity; type: cell-based, mouse; conditions: for activity at 0.01 µM / activity at 1 µM: Mus musculus, Primary cortical neuron; for activity at 0.01 µM: read-out: A: Synaptogenesis (% of control) of test compound (10 nM) + paclitaxel (1 μM); for activity at 1 µM: read-out: B: Synaptogenesis (% of control) of test compound (1000 nM) + paclitaxel (1 μM); for attenuation of synaptogenesis inhibited by paclitaxel (in words): test compound 10 and 1000 nM prior to paclitaxel 1 μM, Figure 1A
Text: (§1) Herein, we wish to report that an in vitro neurite outgrowth assay of cortical neurons integrated with an image-based high-content screening (HCS) platform is used to evaluate a commercially available library of 78 minoxidil-related derivatives,[22] leading to the identification of a series of analogues able to prevent or alleviate paclitaxel-induced neurotoxicity. The project began with screening compounds with the primary culture of cortical neurons from neonatal mice. More specifically, cerebral cortex neurons cultured from P0 C57BL/6J mouse pups were incubated with a test compound (10 and 1000 nM) prior to paclitaxel (1 μM) treatment. Subsequently, both neurite outgrowth and synaptogenesis were measured to evaluate the test compounds’ neuroprotective capacity. […] This unique feature is preserved for the core-structure screening of our in-house library in the following subject. Moreover, the substituent at the C4 position appears flexible in terms of structural diversity. Collectively, CSV0A024807, the only one displaying the best neuroprotective potency on both neurite outgrowth and synaptogenesis assays, was thus elected as a potential hit compound for further development.
(§2) Primary cortical or DRG cells were fixed with 4% paraformaldehyde for 15 min following compound and paclitaxel treatment. After washing with PBS, the fixed cells were permeabilized with PBS containing 0.05% Triton X-100 for 20 min and then blocked with commercial blocking buffer (#GTX30963; GeneTex, USA) at room temperature for 1 h. Subsequently, the cortical cells were stained for the extending processes and synaptic puncta by using anti-MAP2 (#MBS502140, 1:500; Mybiosource, USA) and anti-synaptophysin (#ab32127, 1:500; Abcam, UK) overnight. DRG cells were stained for the neurite and neuron nucleus by using anti-β III tubulin (#D71G9, 1:600; Cell Signaling, USA) and anti-NeuN monoclonal antibody (#MAB377, 1:400; Millipore, USA) overnight. On the second day, the samples were washed for 30 min with wash buffer and incubated with secondary antibodies (Alexa-488, 647 1:600; Thermo Fisher, USA) and 4 μg/mL Hoechst 33258 (#94403-1ML, 1:100; Merck, USA) at room temperature for 1 h. In the initial experiments of screening the potential neuroprotective compound for CIPN, ImageXpress^Micro (IXM) high-content imaging system (Molecular Devices, USA) driven by MetaXpress software was used. Images of treated cells were automatically acquired by using a 10× objective. Twenty-one images per well were taken in each of three channels (DAPI, FITC, and Cy5) to create a whole view of the entire neural network. The integrity of the neural network was evaluated using TIF images by importing them into MetaXpress software for analysis using the module for multiparameter, such as Neurite Outgrowth, Cell Scoring, and Transfluor. Furthermore, the score of synaptogenesis was analyzed in AcuityXpress software (Molecular Devices, USA).

[2] = tested on: primary cortical neurons; test: Neurite outgrowth assay of primary cortical neurons (image-based HCS) against paclitaxel-induced neurotoxicity; type: cell-based, mouse; conditions: for activity at 0.01 µM / activity at 1 µM: Mus musculus, Primary cortical neuron; for activity at 0.01 µM: read-out: C: Neurite outgrowth (% of control) of test compound (10 nM) + paclitaxel (1 μM); for activity at 1 µM: read-out: D: Neurite outgrowth (% of control) of test compound (1000 nM) + paclitaxel (1 μM); for protective effect in the neurite outgrowth assay (in words): test compound 10 and 1000 nM prior to paclitaxel 1 μM, Figure 1A
Text: as §1, §2

[3] = test compound 10 nM + paclitaxel 1 μM, mean ± SE
[4] = test compound 1000 nM + paclitaxel 1 μM, mean ± SE

| SMILES | activity at 0.01 µM [1, 3] | activity at 1 µM [1, 4] | activity at 0.01 µM [2, 3] | activity at 1 µM [2, 4] | further results |
| --- | --- | --- | --- | --- | --- |
| Oc1cccc(/C=N/Nc2cc(N3CCCCC3)nc(N3CCCCC3)n2)c1 [CSV0B001120] | 43 ± 5% | 41 ± 5% | 95 ± 9% | 82 ± 2% | – |
| CCCN(CCC)c1cc(NNC(=O)CCc2ccccc2)nc(N(CCC)CCC)n1 [CSV0D043578] | – | – | – | – | activity at 0.01 µM [1]: 38 ± 3%; activity at 1 µM [1]: 42 ± 4%; activity at 0.01 µM [2]: 42 ± 5%; activity at 1 µM [2]: 48 ± 1% |
| CN(C)c1cc(N/N=C/c2cc3c(c([N+](=O)[O-])c2)OCO3)nc(N(C)C)n1 [CSV0A047583] | 66 ± 4% | 69 ± 5% | 63 ± 3% | 61 ± 3% | – |
| O=C(NNc1cc(N2CCOCC2)nc(N2CCOCC2)n1)c1ccccc1 [CSV0A051549] | 86 ± 6% | 77 ± 7% | 71 ± 1% | 68 ± 1% | protective effect in the neurite outgrowth assay (in words) [2]: significant protective effect |
| CCOc1ccc(Nc2nc(/N=C/c3c(OC)c(C(=O)Nc4ccccc4C)cc4ccccc34)c([N+](=O)[O-])c(NCc3ccccc3)n2)cc1 [CSVOD047961] | 30 ± 3% | 36 ± 1% | 90 ± 2% | 95 ± 2% | – |
| CN(C)c1cc(NNC(=O)c2ccccc2O)nc(N(C)C)n1 [CSV0A2327S0] | 42 ± 2% | 41 ± 5% | 55 ± 1% | 53 ± 5% | – |
| O=[N+]([O-])c1ccc(/C=N/Nc2cc(N3CCOCC3)nc(N3CCOCC3)n2)cc1 [CSV0A024806] | – | – | – | – | A: Synaptogenesis (% of control) of test compound (10 nM) + paclitaxel (1 μM) [1, 3]: 68±6 % of control; B: Synaptogenesis (% of control) of test compound (1000 nM) + paclitaxel (1 μM) [1, 4]: 78±5 % of control; C: Neurite outgrowth (% of control) of test compound (10 nM) + paclitaxel (1 μM) [2, 3]: 70±3 % of control; D: Neurite outgrowth (% of control) of test compound (1000 nM) + paclitaxel (1 μM) [2, 4]: 68±6 % of control |
| CN(C)c1ccc(/C=N/Nc2cc(N3CCOCC3)nc(N3CCOCC3)n2)cc1 [CSV0A041617] | 30 ± 1% | 30 ± 1% | 93 ± 5% | 94 ± 1% | – |
| CCN(CC)c1cc(NNC(=O)c2ccc(C(C)(C)C)cc2)nc(N(CC)CC)n1 [CSV0B008884] | 35 ± 3% | 37 ± 3% | 41 ± 3% | 41 ± 4% | – |
| Oc1cccc(/C=N/Nc2cc(N3CCCC3)nc(N3CCCC3)n2)c1 [CSV0A055770] | 24 ± 2% | 25 ± 2% | 82 ± 4% | 75 ± 4% | – |
| O=[N+]([O-])c1cccc(/C=N/Nc2cc(N3CCOCC3)nc(N3CCOCC3)n2)c1 [CSV0A024807] | 92 ± 2% | 97 ± 2% | 69 ± 3% | 60 ± 1% | attenuation of synaptogenesis inhibited by paclitaxel (in words) [1]: significantly attenuated; rescue of neuronal damage caused by paclitaxel (immunofluorescence images) ([2]; pretreated, primary cortical neuron culture, Figure 1B): significantly rescued; protective effect in the neurite outgrowth assay (in words) [2]: significant protective effect |
| C(=N\Nc1cc(N2CCCCCC2)nc(N2CCCCCC2)n1)/c1ccncc1 [CSV0A061667] | 40 ± 6% | 41 ± 7% | 82 ± 6% | 82 ± 6% | – |
| CCCN(CCC)c1cc(N/N=C/c2ccc(Cl)cc2)nc(N(CCC)CCC)n1 [CSV0A061665] | 27 ± 3% | 27 ± 5% | 37 ± 7% | 27 ± 3% | – |
| COc1ccc(/C=N/Nc2cc(N3CCCC3)nc(N3CCCC3)n2)cc1 [CSV0A024813] | 98 ± 4% | 81 ± 5% | 66 ± 2% | 63 ± 2% | attenuation of synaptogenesis inhibited by paclitaxel (in words) [1]: significantly attenuated |
| COc1ccccc1/C=N/Nc1cc(N2CCCCC2)nc(N2CCCCC2)n1 [CSV0A061666] | 41 ± 1% | 42 ± 4% | 91 ± 3% | 89 ± 7% | – |
| Cc1ccccc1C(=O)NNc1cc(N2CCOCC2)nc(N2CCOCC2)n1 [CSV0A062712] | 52 ± 7% | 51 ± 2% | 67 ± 10% | 63 ± 6% | – |

| SMILES | activity at 0.01 µM [1, 3] | activity at 1 µM [1, 4] | activity at 0.01 µM [2, 3] | activity at 1 µM [2, 4] | further results |
| --- | --- | --- | --- | --- | --- |
| O=C(CCc1ccccc1)NNc1cc(N2CCCC2)nc(N2CCCC2)n1 [CSV0C019163] | – | – | – | – | activity at 0.01 µM [1]: 49 ± 4%; activity at 1 µM [1]: 53 ± 1%; activity at 0.01 µM [2]: 68 ± 7%; activity at 1 µM [2]: 74 ± 1% |
| COc1ccccc1/C=N/Nc1cc(N2CCOCC2)nc(N2CCOCC2)n1 [CSV0A013031] | 57 ± 1% | 33 ± 3% | 74 ± 3% | 67 ± 6% | – |
| CN(C)c1cc(N/N=C/c2ccc(Cl)cc2)nc(N(C)C)n1 [CSV0A027459] | 35 ± 1% | 37 ± 2% | 76 ± 7% | 79 ± 11% | – |
| Oc1ccccc1/C=N/Nc1cc(N2CCOCC2)nc(N2CCOCC2)n1 [CSV0B002764] | 48 ± 5% | 47 ± 3% | 66 ± 6% | 67 ± 4% | – |
| COc1ccccc1/C=N/Nc1cc(N2CCCC2)nc(N2CCCC2)n1 [CSV0A055771] | 36 ± 2% | 40 ± 8% | 68 ± 6% | 68 ± 3% | – |
| Oc1ccc(/C=N/Nc2cc(N3CCOCC3)nc(N3CCOCC3)n2)cc1 [CSV0A013029] | 72 ± 2% | 84 ± 6% | 58 ± 2% | 54 ± 5% | attenuation of synaptogenesis inhibited by paclitaxel (in words) [1]: significantly attenuated |
| CCN(CC)c1cc(N/N=C/c2ccc(Cl)cc2)nc(N(CC)CC)n1 [CSV0A020149] | 43 ± 1% | 36 ± 1% | 52 ± 2% | 48 ± 3% | – |
| CCN(CC)c1cc(N/N=C/c2ccccc2O)nc(N(CC)CC)n1 [CSV0B018834] | 30 ± 3% | 31 ± 3% | 39 ± 3% | 39 ± 2% | – |
| CCN(CC)c1ccc(/C=N/Nc2cc(N3CCOCC3)nc(N3CCOCC3)n2)cc1 [CSV0A024804] | 67 ± 8% | 62 ± 3% | 68 ± 2% | 66 ± 1% | – |
| CN(C)c1cc(N/N=C/c2cccc([N+](=O)[O-])c2)nc(N(C)C)n1 [CSV0A027458] | 73 ± 3% | 73 ± 3% | 71 ± 3% | 65 ± 3% | – |
| C(=N\Nc1cc(N2CCOCC2)nc(N2CCOCC2)n1)/c1ccncc1 [CSV0A024809] | 38 ± 3% | 27 ± 0.5% | 77 ± 2% | 82 ± 3% | – |
| Clc1ccc(/C=N/Nc2cc(N3CCCC3)nc(N3CCCC3)n2)cc1 [CSV0A024814] | 46 ± 1% | 31 ± 1% | 81 ± 0.005% | 67 ± 2% | – |
| COc1cc(/C=N/Nc2cc(N(C)C)nc(N(C)C)n2)ccc1O [CSV0A055768] | – | – | – | – | activity at 0.01 µM [1]: 35 ± 4%; activity at 1 µM [1]: 33 ± 0.2%; activity at 0.01 µM [2]: 71 ± 2%; activity at 1 µM [2]: 74 ± 6% |
| Cc1ccc(S)c(Nc2cc(N)nc(N)n2)n1 [CSV0A0544S0] | 63 ± 5% | 52 ± 8% | 60 ± 2% | 57 ± 5% | – |
| CN(C)c1cc(N/N=C/c2cccc(O)c2)nc(N(C)C)n1 [CSV0A021190] | 37 ± 1% | 45 ± 1% | 43 ± 1% | 50 ± 2% | – |
| CCN(CC)c1cc(N/N=C/c2cccc(O)c2)nc(N(CC)CC)n1 [CSV0A007879] | 38 ± 3% | 26 ± 5% | 42 ± 5% | 35 ± 4% | – |

From paper PMC8958505, “Discovery of Potential Neuroprotective Agents against Paclitaxel-Induced Peripheral Neuropathy” (Journal of Medicinal Chemistry, 2022)
